Measurements as given in patent US20250134887A1, “METHODS OF TREATING PROSTATE CANCER” (AstraZeneca AB, priority 2022, published 2025).

Tests used:
[1] = system: patients with progressive mCRPC who had not received chemotherapy; conditions: COU-AA-302; cited from earlier work
patients with mCRPC = assay: PROpel phase III trial: safety, adverse events (CTCAE v.4.03); format: in vivo, human
Protocol: Trial design and interventions. This was a double-blind, placebo-controlled, phase Ill trial. Eligible patients were randomized (1:1) to treatment with abiraterone acetate (1000 mg once daily) in combination with either olaparib (300 mg twice daily) or placebo. All patients received prednisone or prednisolone (5 mg twice daily) as per the abiraterone acetate label requirement. Randomization was stratified by distant metastasis type (bone only/visceral/other) at baseline and by docetaxel treatment at the mHSPC stage of disease (yes or no). Study treatment continued until objective imaging-based progressive disease assessed by investigator (using Response Evaluation Criteria in Solid Tumors [RECIST 1.1] for soft tissue lesions and Prostate Cancer Working Group-3 [PCWG-3] criteria for bone lesions), unacceptable toxicity, or withdrawal of consent. Following objective disease progression, further treatment options were at the discretion of the investigator. Patients could continue study treatment if the investigator believed, that the patient could continue to receive clinical benefit, was not experiencing serious toxicity and there was no available better alternative treatment. Crossover from placebo to receive olaparib in combination with abiraterone acetate was not allowed.
Safety was assessed through reporting of adverse events and serious adverse events (according to Common Terminology Criteria for Adverse Events v.4.03) based on physical examination findings, vital signs, ECG findings and laboratory test results.
Statistical analysis. Efficacy was analyzed for the intention-to-treat population and safety was analyzed for all patients who received any amount of abiraterone acetate, olaparib, or placebo. Patients who received at least one dose of olaparib were included in the abiraterone acetate and olaparib arm.

[2] = male, human, in vivo, 15.7 months

CC(=O)O[C@H]1CC[C@@]2(C)C(=CC[C@@H]3[C@@H]2CC[C@]2(C)C(c4cccnc4)=CC[C@@H]32)C1 [abiraterone acetate and placebo, (3β)-17-(3-pyridinyl) androsta-5,16-dien-3-yl acetate]
median radiographic progression-free survival [1]: 16.5 months
Anemia, % of patients (patients with mCRPC; All Grades): (16.4) %
Anemia, number of patients (patients with mCRPC; All Grades): 65
Any adverse event, % of patients (patients with mCRPC; All Grades): (94.9) %
Any adverse event, number of patients (patients with mCRPC; All Grades): 376
Arthralgia, % of patients (patients with mCRPC; All Grades): (17.7) %
Arthralgia, number of patients (patients with mCRPC; All Grades): 70
Back pain, % of patients (patients with mCRPC; All Grades): (18.4) %
Back pain, number of patients (patients with mCRPC; All Grades): 73
Cardiac failure adverse events, % of patients (patients with mCRPC; All Grades): (1.3) %
Cardiac failure adverse events, number of patients (patients with mCRPC; All Grades): 5
Constipation, % of patients (patients with mCRPC; All Grades): (13.9) %
Constipation, number of patients (patients with mCRPC; All Grades): 55
Decreased appetite, % of patients (patients with mCRPC; All Grades): (5.8) %
Decreased appetite, number of patients (patients with mCRPC; All Grades): 23
Diarrhea, % of patients (patients with mCRPC; All Grades): (9.3) %
Diarrhea, number of patients (patients with mCRPC; All Grades): 37
Dizziness, % of patients (patients with mCRPC; All Grades): (6.3) %
Dizziness, number of patients (patients with mCRPC; All Grades): 25
Embolic and thrombotic arterial adverse events, % of patients (patients with mCRPC; All Grades): (2.5) %
Embolic and thrombotic arterial adverse events, number of patients (patients with mCRPC; All Grades): 10
Fatigue or asthenia, % of patients (patients with mCRPC; All Grades): (28.3) %
Fatigue or asthenia, number of patients (patients with mCRPC; All Grades): 112
Hypertension, % of patients (patients with mCRPC; All Grades): (16.4) %
Hypertension, number of patients (patients with mCRPC; All Grades): 65
Nausea, % of patients (patients with mCRPC; All Grades): (12.6) %
Nausea, number of patients (patients with mCRPC; All Grades): 50
Peripheral edema, % of patients (patients with mCRPC; All Grades): (11.4) %
Peripheral edema, number of patients (patients with mCRPC; All Grades): 45
Urinary tract infection, % of patients (patients with mCRPC; All Grades): (7.8) %
Urinary tract infection, number of patients (patients with mCRPC; All Grades): 31
Vomiting, % of patients (patients with mCRPC; All Grades): (9.1) %
Vomiting, number of patients (patients with mCRPC; All Grades): 36
Anemia, % of patients (patients with mCRPC; Grade ≥ 3): 3.3%
Anemia, number of patients (patients with mCRPC; Grade ≥ 3): 13
Any adverse event, % of patients (patients with mCRPC; Grade ≥ 3): (38.4) %
Any adverse event, number of patients (patients with mCRPC; Grade ≥ 3): 152
Arthralgia, % of patients (patients with mCRPC; Grade ≥ 3): (0.5) %
Arthralgia, number of patients (patients with mCRPC; Grade ≥ 3): 2
Back pain, % of patients (patients with mCRPC; Grade ≥ 3): (1.0) %
Back pain, number of patients (patients with mCRPC; Grade ≥ 3): 4
COVID-19, % of patients (patients with mCRPC; Grade ≥ 3): 2.0%
COVID-19, cases (patients with mCRPC; Grade ≥ 3): 8
Constipation, % of patients (patients with mCRPC; Grade ≥ 3): (0.3) %
Constipation, number of patients (patients with mCRPC; Grade ≥ 3): 1
Decreased appetite, number of patients (patients with mCRPC; Grade ≥ 3): 0
Diarrhea, % of patients (patients with mCRPC; Grade ≥ 3): (0.3) %
Diarrhea, number of patients (patients with mCRPC; Grade ≥ 3): 1
Dizziness, number of patients (patients with mCRPC; Grade ≥ 3): 0
Fatigue or asthenia, % of patients (patients with mCRPC; Grade ≥ 3): (1.5) %
Fatigue or asthenia, number of patients (patients with mCRPC; Grade ≥ 3): 6
Hypertension, % of patients (patients with mCRPC; Grade ≥ 3): (3.3) %
Hypertension, number of patients (patients with mCRPC; Grade ≥ 3): 13
Nausea, % of patients (patients with mCRPC; Grade ≥ 3): (0.3) %
Nausea, number of patients (patients with mCRPC; Grade ≥ 3): 1
Peripheral edema, % of patients (patients with mCRPC; Grade ≥ 3): (0.3) %
Peripheral edema, number of patients (patients with mCRPC; Grade ≥ 3): 1
Urinary tract infection, % of patients (patients with mCRPC; Grade ≥ 3): (1.0) %
Urinary tract infection, number of patients (patients with mCRPC; Grade ≥ 3): 4
Vomiting, % of patients (patients with mCRPC; Grade ≥ 3): (0.3) %
Vomiting, number of patients (patients with mCRPC; Grade ≥ 3): 1
Anemia, % of patients (patients with mCRPC; Grade ≥ 3, listed as Abiraterone and Placebo): (3.3) %
COVID-19, % of patients (patients with mCRPC; all grades): 4.5%
COVID-19, cases (patients with mCRPC; all grades): 18
Any serious adverse event, % of patients (patients with mCRPC; human, in vivo, 15.7 months): (27.0) %
Any serious adverse event, number of patients (patients with mCRPC; human, in vivo, 15.7 months): 107
Death due to an adverse event, % of patients (patients with mCRPC; human, in vivo, 15.7 months): (4.3) %
Death due to an adverse event, number of patients (patients with mCRPC; human, in vivo, 15.7 months): 17
Discontinuation of abiraterone acetate due to an adverse event, % of patients (patients with mCRPC; human, in vivo, 15.7 months): (8.8) %
Discontinuation of abiraterone acetate due to an adverse event, number of patients (patients with mCRPC; human, in vivo, 15.7 months): 35
Discontinuation of olaparib/placebo due to an adverse event, % of patients (patients with mCRPC; human, in vivo, 15.7 months): (7.8) %
Discontinuation of olaparib/placebo due to an adverse event, number of patients (patients with mCRPC; human, in vivo, 15.7 months): 31
Dose reduction of abiraterone acetate due to an adverse event, % of patients (patients with mCRPC; human, in vivo, 15.7 months): (4.3) %
Dose reduction of abiraterone acetate due to an adverse event, number of patients (patients with mCRPC; human, in vivo, 15.7 months): 17
Dose reduction of olaparib/placebo due to an adverse event, % of patients (patients with mCRPC; human, in vivo, 15.7 months): (5.6) %
Dose reduction of olaparib/placebo due to an adverse event, number of patients (patients with mCRPC; human, in vivo, 15.7 months): 22
Interruption of abiraterone acetate because of an adverse event, % of patients (patients with mCRPC; human, in vivo, 15.7 months): (22.0) %
Interruption of abiraterone acetate because of an adverse event, number of patients (patients with mCRPC; human, in vivo, 15.7 months): 87
Interruption of olaparib/placebo because of an adverse event, % of patients (patients with mCRPC; human, in vivo, 15.7 months): (25.3) %
Interruption of olaparib/placebo because of an adverse event, number of patients (patients with mCRPC; human, in vivo, 15.7 months): 100
Deep-vein thrombosis, patients (patients with mCRPC; in vivo): three
pulmonary embolism, cases (patients with mCRPC; in vivo): seven
Deep-vein thrombosis, % of patients (patients with mCRPC; [2]): 0.8%
new primary cancers, % of patients (patients with mCRPC; [2]): 2.5%
new primary cancers, reports (patients with mCRPC; [2]): 10
pulmonary embolism, % of patients (patients with mCRPC; [2]): 1.8%
